Reference: US20120128705A1, “C6ORF167 PEPTIDES AND VACCINES CONTAINING THE SAME” (OncoTherapy Science, Inc., priority 2009, published 2012)
Ends that are not written are not given here.

What was measured:
Type in all cases: cell-based, human
peptide-pulsed T2 [1] = assay: IFN-gamma ELISPOT assay on CTLs induced with peptide (HLA-A*0201); details: CTLs from HLA-A*0201 positive donor, 3 rounds of stimulation, day 21; vs control wells without peptide
From the text: Monocyte-derived dendritic cells (DCs) were used as antigen-presenting cells to induce cytotoxic T lymphocyte (CTL) responses against peptides presented on human leukocyte antigen (HLA). DCs were generated in vitro as described elsewhere (Nakahara S et al., Cancer Res 2003 Jul. 15, 63(14): 4112-8). Specifically, peripheral blood mononuclear cells (PBMCs) isolated from a normal volunteer (HLA-A*0201 positive) by Ficoll-Plaque (Pharmacia) solution were separated by adherence to a plastic tissue culture dish (Becton Dickinson) so as to enrich them as the monocyte fraction. The monocyte-enriched population was cultured in the presence of 1,000 U/ml of granulocyte-macrophage colony-stimulating factor (R&D System) and 1,000 U/ml of interleukin (IL)-4 (R&D System) in AIM-V Medium (Invitrogen) containing 2% heat-inactivated autologous serum (AS). After 7 days of culture, the cytokine-induced DCs were pulsed with 20 micro-g/ml of each of the synthesized peptides in the presence of 3 micro-g/ml of beta 2-microglobulin for 3 hrs at 37 degrees C. in AIM-V Medium. The generated cells appeared to express DC-associated molecules, such as CD80, CD83, CD86 and HLA class II, on their cell surfaces (data not shown). These peptide-pulsed DCs were then inactivated by X-irradiated (20 Gy) and mixed at a 1:20 ratio with autologous CD8+ T cells, obtained by positive selection with CD8 positive Isolation Kit (Dynal). These cultures were set up in 48-well plates (Corning); each well contained 1.5×10^4 peptide-pulsed DCs, 3×10^5 CD8+ T cells and 10 ng/ml of IL-7 (R&D System) in 0.5 ml of AIM-V/2% AS medium. Three days later, these cultures were supplemented with IL-2 (CHIRON) to a final concentration of 20 IU/ml. On days 7 and 14, the T cells were further stimulated with the autologous peptide-pulsed DCs. The DCs were prepared each time by the same way described above. CTL was tested against peptide-pulsed T2 cells after the 3rd round of peptide stimulation on day 21 (Tanaka H et al., Br J Cancer 2001 Jan. 5, 84(1): 94-9; Umano Y et al., Br J Cancer 2001 Apr. 20, 84(8): 1052-7; Uchida N et al., Clin Cancer Res 2004 Dec. 15, 10(24): 8577-86; Suda T et al., Cancer Sci 2006 May, 97(5): 411-9; Watanabe T et al., Cancer Sci 2005 August, 96(8): 498-506).
(§1) To examine specific CTL activity, interferon (IFN)-gamma enzyme-linked immunospot (ELISPOT) assay and IFN-gamma enzyme-linked immunosorbent assay (ELISA) were performed. Specifically, peptide-pulsed T2 (1×10^4/well) was prepared as stimulator cells. Cultured cells in 48 wells were used as responder cells. IFN-gamma ELISPOT assay and IFN-gamma ELISA assay were performed under manufacture procedure.

peptide-pulsed T2 [2] = assay: IFN-gamma ELISA assay of CTL lines (HLA-A*0201); details: target cells pulsed with corresponding peptide vs without peptide pulse
Description: CTLs were expanded in culture using the method similar to the one described by Riddell et al. (Walter E A et al., N Engl J Med 1995 Oct. 19, 333(16): 1038-44; Riddell S R et al., Nat Med 1996 February, 2(2): 216-23). A total of 5×10^4 CTLs were suspended in 25 ml of AIM-V/5% AS medium with 2 kinds of human B-lymphoblastoid cell lines, inactivated by Mitomycin C, in the presence of 40 ng/ml of anti-CD3 monoclonal antibody (Pharmingen). One day after initiating the cultures, 120 IU/ml of IL-2 were added to the cultures. The cultures were fed with fresh AIM-V/5% AS medium containing 30 IU/ml of IL-2 on days 5, 8 and 11 (Tanaka H et al., Br J Cancer 2001 Jan. 5, 84(1): 94-9; Umano Y et al., Br J Cancer 2001 Apr. 20, 84(8): 1052-7; Uchida N et al., Clin Cancer Res 2004 Dec. 15, 10(24): 8577-86; Suda T et al., Cancer Sci 2006 May, 97(5): 411-9; Watanabe T et al., Cancer Sci 2005 August, 96(8): 498-506).
as §1

peptide-pulsed T2 [3] = assay: IFN-gamma ELISA assay of CTL clones (HLA-A*0201); details: clones by limiting dilution; target cells pulsed with peptide
Description: The dilutions were made to have 0.3, 1, and 3 CTLs/well in 96 round-bottomed micro titer plate (Nalge Nunc International). CTLs were cultured with 1×10^4 cells/well of 2 kinds of human B-lymphoblastoid cell lines, 30 ng/ml of anti-CD3 antibody, and 125 U/ml of IL-2 in a total of 150 micro-l/well of AIM-V Medium containing 5% AS. 50 micro-1/well of IL-2 were added to the medium 10 days later so to reach a final concentration of 125 U/ml IL-2. CTL activity was tested on the 14th day, and CTL clones were expanded using the same method as described above (Uchida N et al., Clin Cancer Res 2004 Dec. 15, 10(24): 8577-86; Suda T et al., Cancer Sci 2006 May, 97(5): 411-9; Watanabe T et al., Cancer Sci 2005 August, 96(8): 498-506).
as §1

Row | Substance | Peptide specific CTL activity: IFN-gamma production by ELISPOT (peptide-pulsed T2 [1]) | IFN-gamma production of CTL lines by ELISA (peptide-pulsed T2 [2]) | IFN-gamma production of CTL clones by ELISA (peptide-pulsed T2 [3])
1 | ALVRFFEAV [SEQ ID NO: 76] | potent IFN-gamma production | potent IFN-gamma production | Potent IFN-gamma productions
2 | CLCIkELWVL (CLCIKELWVL; not fully specified (residue 5); printed as CLCIkELWVL; cysteine pairing not given here) [SEQ ID NO: 122] | potent IFN-gamma production | potent IFN-gamma production | –
3 | FLCILAKVV [SEQ ID NO: 84] | potent IFN-gamma production | potent IFN-gamma production | Potent IFN-gamma productions
4 | FLLLaAVAEV (FLLLAAVAEV; not fully specified; printed as FLLLaAVAEV) [SEQ ID NO: 101] | potent IFN-gamma production | potent IFN-gamma production | Potent IFN-gamma productions
5 | FLLMyAQKNL (FLLMYAQKNL; not fully specified; printed as FLLMyAQKNL) [SEQ ID NO: 112] | potent IFN-gamma production | potent IFN-gamma production | –
6 | FLTDsLELEL (FLTDSLELEL; not fully specified; printed as FLTDsLELEL) [SEQ ID NO: 111] | potent IFN-gamma production | potent IFN-gamma production | Potent IFN-gamma productions
7 | GLQNfFSLFL (GLQNFFSLFL; not fully specified; printed as GLQNfFSLFL) [SEQ ID NO: 110] | potent IFN-gamma production | potent IFN-gamma production | Potent IFN-gamma productions
8 | KLTRLLFNL [SEQ ID NO: 65] | potent IFN-gamma production | potent IFN-gamma production | Potent IFN-gamma productions
9 | LLCDlISLSL (LLCDLISLSL; not fully specified; printed as LLCDlISLSL) [SEQ ID NO: 123] | potent IFN-gamma production | potent IFN-gamma production | –
10 | QQCVlFLHYV (QQCVLFLHYV; not fully specified; printed as QQCVlFLHYV) [SEQ ID NO: 113] | potent IFN-gamma production | potent IFN-gamma production | Potent IFN-gamma productions
11 | VLFLHYVKV [SEQ ID NO: 66] | potent IFN-gamma production | potent IFN-gamma production | Potent IFN-gamma productions
12 | WLVLeILYML (WLVLEILYML; not fully specified; printed as WLVLeILYML) [SEQ ID NO: 117] | potent IFN-gamma production | potent IFN-gamma production | –
